Measurements as given in patent US10272095B2 (GlaxoSmithKline Intellectual Property Development Limited, priority 2015, dated 2019).
Counter-ions that a name gives are not always drawn.

Tested on: NQO1 specific enzyme activity in BEAS-2B cells
Assay: BEAS-2B NQO1 MTT assay
Type: cell-based
Settings: Homo sapiens, BEAS-2B, 48 h, NQO1 specific enzyme activity induction in BEAS-2B cells, 48 hours; read-out: EC50
In short: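 BEAS-2B cells exposed to compound 48 h at 37° C, 5% CO2, then lysed. NQO1 activity read kinetically in lysate with MTT cocktail (absorbance 570 nm, 30 min); Cell Titer Glo run on a lysate aliquot. pEC50 from ΔOD/min versus log concentration, 3-parameter fit.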

**Q.** How did the EC50 turn out when CC[C@@H]1CN(C2CCc3ccc(C(CC(=O)O)c4cc(OC)c5c(nnn5C)c4C)cc32)Cc2ccccc2O1 (stereo partly drawn) [Example 45, 3-(3-((R)-2-Ethyl-2,3-dihydrobenzo[f][1,4]oxazepin-4(5H)-yl)-2,3-dihydro-1H-inden-5-yl)-3-(7-methoxy-1,4-dimethyl-1H-benzo[d][1,2,3]triazol-5-yl)propanoic Acid, Formic Acid Salt] was run?
**A.** Its EC50 is 0.01 to 0.1 µM.

**Q.** Which EC50 does the source give for COc1cc(C(CC(=O)O)c2ccc3c(c2)C(N2Cc4cnccc4OC(C)(C)C2)CC3)cc2nnn(C)c12 (stereo not drawn) [Example 46, 3-(3-(2,2-Dimethyl-2,3-dihydropyrido[3,4-f][1,4]oxazepin-4(5H)-yl)-2,3-dihydro-1H-inden-5-yl)-3-(7-methoxy-1-methyl-1H-benzo[d][1,2,3]triazol-5-yl)propanoic Acid, Formic Acid Salt] here?
**A.** Its EC50 is 0.01 to 0.1 µM.

**Q.** For Cc1ccc2c(c1)CN(C1CCc3ccc(C(CC(=O)O)c4ccc5c(nnn5C)c4C)cc31)C[C@@H](C)O2 (stereo partly drawn) [Example 47, 3-(1,4-Dimethyl-1H-benzo[d][1,2,3]triazol-5-yl)-3-(3-((R)-2,7-dimethyl-2,3-dihydrobenzo[f][1,4]oxazepin-4(5H)-yl)-2,3-dihydro-1H-inden-5-yl)propanoic Acid, Formic Acid Salt], which EC50 is on record?
**A.** Its EC50 is 0.01 to 0.1 µM.

**Q.** Cc1c(C(CC(=O)O)c2ccc3c(c2)C(N2Cc4cnccc4OC(C)(C)C2)CC3)ccc2c1nnn2C (stereo not drawn) [Example 48, 3-(1,4-Dimethyl-1H-benzo[d][1,2,3]triazol-5-yl)-3-(3-(2,2-dimethyl-2,3-dihydropyrido[3,4-f][1,4]oxazepin-4(5H)-yl)-2,3-dihydro-1H-inden-5-yl)propanoic Acid, Formic Acid Salt] was tested. Which EC50 did it give?
**A.** The EC50 was 0.01 to 0.1 µM.

**Q.** With Cc1c(C(c2ccc3c(c2)C(N2Cc4cccnc4O[C@@H](C)C2)CC3)C(C)(C)C(=O)O)ccc2c1nnn2C (stereo partly drawn) [Example 49, 3-(1,4-Dimethyl-1H-benzo[d][1,2,3]triazol-5-yl)-2,2-dimethyl-3-(3-((S)-2-methyl-2,3-dihydropyrido[3,2-f][1,4]oxazepin-4(5H)-yl)-2,3-dihydro-1H-inden-5-yl)propanoic Acid, Formic Acid Salt] as the compound, how does the EC50 read?
**A.** Its EC50 is 0.01 to 0.1 µM.

**Q.** For CC[C@@H]1CN(C2CCc3ccc(C(CC(=O)O)c4ccc5c(nnn5C)c4C)cc32)Cc2ccccc2O1 (stereo partly drawn) [Example 50, 3-(1,4-Dimethyl-1H-benzo[d][1,2,3]triazol-5-yl)-3-(3-((R)-2-ethyl-2,3-dihydrobenzo[f][1,4]oxazepin-4(5H)-yl)-2,3-dihydro-1H-inden-5-yl)propanoic Acid, Formic Acid Salt], which EC50 is on record?
**A.** Its EC50 is 0.01 to 0.1 µM.

**Q.** How did the EC50 turn out when Cc1c(C(CC(=O)O)c2ccc3c(c2)C(N2Cc4cccnc4OC(C)(C)C2)CC3)ccc2c1nnn2C (stereo not drawn) [Example 51] was run?
**A.** Its EC50 is 0.01 to 0.1 µM.

**Q.** How did the EC50 turn out when COc1cc(C(CC(=O)O)c2ccc3c(c2)C(N2CCOc4ccccc4C2)CC3)c(C)c2nnn(C)c12 (stereo not drawn) [Example 52, 3-(3-(2,3-Dihydrobenzo[f][1,4]oxazepin-4(5H)-yl)-2,3-dihydro-1H-inden-5-yl)-3-(7-methoxy-1,4-dimethyl-1H-benzo[d][1,2,3]triazol-5-yl)propanoic Acid, Formic Acid Salt] was run?
**A.** Its EC50 is 0.01 to 0.1 µM.

**Q.** How did the EC50 turn out when Cc1c(C(CC(=O)O)c2ccc3c(c2)C(N2Cc4ccccc4O[C@H](C)C2)CC3)ccc2c1nnn2C (stereo partly drawn) [Example 53, 3-(1,4-Dimethyl-1H-benzo[d][1,2,3]triazol-5-yl)-3-(3-((R)-2-methyl-2,3-dihydrobenzo[f][1,4]oxazepin-4(5H)-yl)-2,3-dihydro-1H-inden-5-yl)propanoic Acid] was run?
**A.** The EC50 was 0.1 to 1 µM.

**Q.** For Cc1c(C(c2ccc3c(c2)C(N2CCOc4ncccc4C2)CC3)C(C)(C)C(=O)O)ccc2c1nnn2C (stereo not drawn) [Example 54, 3-(3-(2,3-Dihydropyrido[3,2-f][1,4]oxazepin-4(5H)-yl)-2,3-dihydro-1H-inden-5-yl)-3-(1,4-dimethyl-1H-benzo[d][1,2,3]triazol-5-yl)-2,2-dimethylpropanoic Acid, Formic Acid Salt, Formic Acid Salt], which EC50 is on record?
**A.** Its EC50 is 0.1 to 1 µM.

**Q.** For COc1cc(C(CC(=O)O)c2ccc3c(c2)C(N2Cc4cccnc4OC(C)(C)C2)CC3)cc2nnn(C)c12 (stereo not drawn) [Example 55, 3-(3-(2,2-Dimethyl-2,3-dihydropyrido[3,2-f][1,4]oxazepin-4(5H)-yl)-2,3-dihydro-1H-inden-5-yl)-3-(7-methoxy-1-methyl-1H-benzo[d][1,2,3]triazol-5-yl)propanoic Acid, Formic Acid Salt], which EC50 is on record?
**A.** Its EC50 is 0.1 to 1 µM.

**Q.** For Cc1c(C(CC(=O)O)c2ccc3c(c2)C(N2Cc4ccccc4O[C@@H](C)C2)CC3)ccc2c1nnn2C (stereo partly drawn) [Example 56, 3-(1,4-Dimethyl-1H-benzo[d][1,2,3]triazol-5-yl)-3-(3-((S)-2-methyl-2,3-dihydrobenzo[f][1,4]oxazepin-4(5H)-yl)-2,3-dihydro-1H-inden-5-yl)propanoic Acid, Formic Acid Salt], which EC50 is on record?
**A.** Its EC50 is 0.1 to 1 µM.

**Q.** Which EC50 does the source give for CC[C@@H]1CN(C2CCc3ccc(C(CC(=O)O)c4ccc5c(nnn5C)c4C)cc32)Cc2cnccc2O1 (stereo partly drawn) [Example 57, 3-(1,4-Dimethyl-1H-benzo[d][1,2,3]triazol-5-yl)-3-(3-((R)-2-ethyl-2,3-dihydropyrido[3,4-f][1,4]oxazepin-4(5H)-yl)-2,3-dihydro-1H-inden-5-yl)propanoic Acid, Formic Acid Salt] here?
**A.** Its EC50 is 0.1 to 1 µM.

**Q.** Cc1c(C(CC(=O)O)c2ccc3c(c2)C(N2CCOc4ccccc4C2)CC3)ccc2c1nnn2C (stereo not drawn) [Example 58, 3-(3-(2,3-Dihydrobenzo[f][1,4]oxazepin-4(5H)-yl)-2,3-dihydro-1H-inden-5-yl)-3-(1,4-dimethyl-1H-benzo[d][1,2,3]triazol-5-yl)propanoic Acid, Formic Acid Salt] was tested. Which EC50 did it give?
**A.** Its EC50 is 0.1 to 1 µM.

**Q.** For Cc1cc(C#N)ccc1C(CC(=O)O)c1ccc2c(c1)C(N1Cc3cccnc3OC(C)(C)C1)CC2 (stereo not drawn) [Example 59, 3-(4-Cyano-2-methylphenyl)-3-(3-(2,2-dimethyl-2,3-dihydropyrido[3,2-f][1,4]oxazepin-4(5H)-yl)-2,3-dihydro-1H-inden-5-yl)propanoic Acid, Formic Acid Salt], which EC50 is on record?
**A.** Its EC50 is 0.1 to 1 µM.

**Q.** Cc1cc(F)ccc1C(CC(=O)O)c1ccc2c(c1)C(N1Cc3cccnc3OC(C)(C)C1)CC2 (stereo not drawn) [Example 60, 3-(3-(2,2-Dimethyl-2,3-dihydropyrido[3,2-f][1,4]oxazepin-4(5H)-yl)-2,3-dihydro-1H-inden-5-yl)-3-(4-fluoro-2-methylphenyl)propanoic Acid, Formic Acid Salt] was tested. Which EC50 did it give?
**A.** The EC50 was 0.1 to 1 µM.

**Q.** For Cc1c(C(CC(=O)O)c2ccc3c(c2)C(N2Cc4cccnc4O[C@H](C)C2)CC3)ccc2c1nnn2C (stereo partly drawn) [Example 61, 3-(1,4-Dimethyl-1H-benzo[d][1,2,3]triazol-5-yl)-3-(3-((R)-2-methyl-2,3-dihydropyrido[3,2-f][1,4]oxazepin-4(5H)-yl)-2,3-dihydro-1H-inden-5-yl)propanoic Acid, Formic Acid Salt], which EC50 is on record?
**A.** Its EC50 is 1 to 10 µM.

**Q.** For Cn1nnc2cc(C(CC(=O)O)c3ccc4c(c3)C(N3Cc5cccnc5OC(C)(C)C3)CC4)ncc21 (stereo not drawn) [Example 62, 3-(3-(2,2-Dimethyl-2,3-dihydropyrido[3,2-f][1,4]oxazepin-4(5H)-yl)-2,3-dihydro-1H-inden-5-yl)-3-(3-methyl-3H-[1,2,3]triazolo[4,5-c]pyridin-6-yl)propanoic Acid, Formic Acid Salt], which EC50 is on record?
**A.** The EC50 was 1 to 10 µM.

**Q.** For CCCc1cn(CCC(CC(=O)O)c2ccc3c(c2)C(N2Cc4ccccc4OC(C)(C)C2)CC3)nn1 (stereo not drawn) [Example 63, 3-(3-(2,2-Dimethyl-2,3-dihydrobenzo[f][1,4]oxazepin-4(5H)-yl)-2,3-dihydro-1H-inden-5-yl)-5-(4-propyl-1H-1,2,3-triazol-1-yl)pentanoic Acid, Trifluoroacetic Acid Salt], which EC50 is on record?
**A.** The EC50 was 1 to 10 µM.

**Q.** Which EC50 does the source give for CCn1nnc(CCC(c2ccc3c(c2)C(N2Cc4ccccc4OC(C)(C)C2)CC3)C(C)(C)C(=O)O)n1 (stereo not drawn) [Example 64, 3-(3-(2,2-dimethyl-2,3-dihydrobenzo[f][1,4]oxazepin-4(5H)-yl)-2,3-dihydro-1H-inden-5-yl)-5-(2-ethyl-2H-tetrazol-5-yl)-2,2-dimethylpentanoic Acid, Trifluoroacetic Acid Salt] here?
**A.** The EC50 was 0.01 to 0.1 µM.

**Q.** How did the EC50 turn out when CCCc1cn(CCC(c2ccc3c(c2)C(N2Cc4ccccc4OC(C)(C)C2)CC3)C(C)(C)C(=O)O)nn1 (stereo not drawn) [Example 65, 3-(3-(2,2-Dimethyl-2,3-dihydrobenzo[f][1,4]oxazepin-4(5H)-yl)-2,3-dihydro-1H-inden-5-yl)-2,2-dimethyl-5-(4-propyl-1H-1,2,3-triazol-1-yl)pentanoic Acid, Trifluoroacetic Acid Salt] was run?
**A.** The EC50 was 0.01 to 0.1 µM.

**Q.** How did the EC50 turn out when Cc1c(C(CC(=O)O)c2ccc3c(c2)C(N2Cc4ccccc4O[C@H](C)C2)CCC3)ccc2c1nnn2C (stereo partly drawn) [Example 66, 3-(1,4-Dimethyl-1H-benzo[d][1,2,3]triazol-5-yl)-3-(8-((R)-2-methyl-2,3-dihydrobenzo[f][1,4]oxazepin-4(5H)-yl)-5,6,7,8-tetrahydronaphthalen-2-yl)propanoic Acid] was run?
**A.** The EC50 was 0.1 to 1 µM.

**Q.** Which EC50 does the source give for Cc1c([C@H](c2ccc3c(c2)[C@H](N2Cc4cnccc4OC(C)(C)C2)CC3)C(C)(C)C(=O)O)ccc2c1nnn2C [Example 86, 3-(1,4-Dimethyl-1H-benzo[d][1,2,3]triazol-5-yl)-3-(3-(2,2-dimethyl-2,3-dihydropyrido[3,4-f][1,4]oxazepin-4(5H)-yl)-2,3-dihydro-1H-inden-5-yl)-2,2-dimethylpropanoic Acid] here?
**A.** The EC50 was under 0.001 µM.

**Q.** Which EC50 does the source give for CC[C@@H]1CN(C2CCc3ccc(C(CCc4cn(CC)nn4)C(C)(C)C(=O)O)cc32)Cc2cnccc2O1 (stereo partly drawn) [Example 87, 5-(1-Ethyl-1H-1,2,3-triazol-4-yl)-3-(3-((R)-2-ethyl-2,3-dihydropyrido[3,4-f][1,4]oxazepin-4(5H)-yl)-2,3-dihydro-1H-inden-5-yl)-2,2-dimethylpentanoic Acid] here?
**A.** The EC50 was 0.01 to 0.1 µM.
